The kinase profiling compilation of Christmann-Franck et al. (2016)
Several values for one entry are separate records, joined by “and”; a condition that tells them apart may be missing. Identical values can stand only once.

Columns and labels:
Test in all cases: radiometric filter-binding kinase assay, Kinase HotSpot
Settings in all cases: compound 0.5 µM; ATP 10 µM
CSK (human) = CSK (human) (UniProt P41240)
IKBKE (human) = IKBKE (human) (UniProt Q14164)
GSG2 (human) = GSG2 (human) (UniProt Q8TF76)
VRK1 (human) = VRK1 (human) (UniProt Q99986)
SGK2 (human) = SGK2 (human) (UniProt Q9HBY8)
MAP3K7 TAB1 (human) = MAP3K7 TAB1 (human) (UniProt O43318+Q15750)
LIMK1 (human) = LIMK1 (human) (UniProt P53667)
TAOK1 (human) = TAOK1 (human) (UniProt Q7L7X3)
TAOK1 (human), sequence (Q7L7X3 whole entry, looked up): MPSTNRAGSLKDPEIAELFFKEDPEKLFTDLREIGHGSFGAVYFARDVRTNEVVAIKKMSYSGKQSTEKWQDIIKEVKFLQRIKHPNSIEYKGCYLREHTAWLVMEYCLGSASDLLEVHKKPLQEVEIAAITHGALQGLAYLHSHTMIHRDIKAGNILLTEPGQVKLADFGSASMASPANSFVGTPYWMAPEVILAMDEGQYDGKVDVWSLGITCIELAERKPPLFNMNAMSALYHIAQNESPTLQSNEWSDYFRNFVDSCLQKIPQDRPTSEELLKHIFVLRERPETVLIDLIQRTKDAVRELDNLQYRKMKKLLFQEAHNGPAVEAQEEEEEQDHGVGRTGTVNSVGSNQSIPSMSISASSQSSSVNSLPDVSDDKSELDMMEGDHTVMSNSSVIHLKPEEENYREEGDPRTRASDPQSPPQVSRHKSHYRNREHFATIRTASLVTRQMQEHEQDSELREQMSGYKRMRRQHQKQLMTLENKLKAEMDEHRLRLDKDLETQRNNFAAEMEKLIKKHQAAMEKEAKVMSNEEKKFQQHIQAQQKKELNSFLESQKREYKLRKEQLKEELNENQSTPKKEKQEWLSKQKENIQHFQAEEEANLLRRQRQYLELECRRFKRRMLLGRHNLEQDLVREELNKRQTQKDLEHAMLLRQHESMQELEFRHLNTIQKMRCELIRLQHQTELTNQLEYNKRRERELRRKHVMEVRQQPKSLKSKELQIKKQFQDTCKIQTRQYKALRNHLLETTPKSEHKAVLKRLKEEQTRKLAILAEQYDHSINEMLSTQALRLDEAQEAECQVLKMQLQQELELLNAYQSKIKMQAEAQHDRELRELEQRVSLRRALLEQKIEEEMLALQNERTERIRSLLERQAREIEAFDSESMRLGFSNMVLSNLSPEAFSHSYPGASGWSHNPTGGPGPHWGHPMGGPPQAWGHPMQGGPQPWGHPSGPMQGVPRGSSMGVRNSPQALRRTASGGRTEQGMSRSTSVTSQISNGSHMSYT

PRKCD (human) = PRKCD (human) (UniProt Q05655)
PRKCD (human), sequence (Q05655 whole entry, looked up): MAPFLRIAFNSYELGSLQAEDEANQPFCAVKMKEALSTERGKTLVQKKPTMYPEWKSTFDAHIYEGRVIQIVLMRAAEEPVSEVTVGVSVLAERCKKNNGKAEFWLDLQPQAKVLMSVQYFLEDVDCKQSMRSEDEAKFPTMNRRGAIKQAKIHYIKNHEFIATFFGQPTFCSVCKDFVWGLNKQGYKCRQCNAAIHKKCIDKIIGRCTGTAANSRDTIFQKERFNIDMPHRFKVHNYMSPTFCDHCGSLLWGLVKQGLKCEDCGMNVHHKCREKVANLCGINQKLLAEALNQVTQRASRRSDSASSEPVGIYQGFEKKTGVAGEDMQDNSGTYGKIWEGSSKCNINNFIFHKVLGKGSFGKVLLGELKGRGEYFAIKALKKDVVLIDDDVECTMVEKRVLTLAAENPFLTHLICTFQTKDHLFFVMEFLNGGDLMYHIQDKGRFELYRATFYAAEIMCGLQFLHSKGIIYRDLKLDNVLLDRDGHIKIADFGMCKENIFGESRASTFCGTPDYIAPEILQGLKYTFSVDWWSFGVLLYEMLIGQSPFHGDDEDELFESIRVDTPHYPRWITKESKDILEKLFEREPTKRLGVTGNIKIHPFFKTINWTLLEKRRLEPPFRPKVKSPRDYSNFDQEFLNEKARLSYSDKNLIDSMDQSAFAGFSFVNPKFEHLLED

NUAK2 (human) = NUAK2 (human) (UniProt Q9H093)
PRKG2 (human) = PRKG2 (human) (UniProt Q13237)
CAMK2D (human) = CAMK2D (human) (UniProt Q13557)
LCK (human) = LCK (human) (UniProt P06239)
PRKCB1 (human) = PRKCB1 (human) (UniProt P05771)
PRKCB1 (human), sequence (P05771 whole entry, looked up): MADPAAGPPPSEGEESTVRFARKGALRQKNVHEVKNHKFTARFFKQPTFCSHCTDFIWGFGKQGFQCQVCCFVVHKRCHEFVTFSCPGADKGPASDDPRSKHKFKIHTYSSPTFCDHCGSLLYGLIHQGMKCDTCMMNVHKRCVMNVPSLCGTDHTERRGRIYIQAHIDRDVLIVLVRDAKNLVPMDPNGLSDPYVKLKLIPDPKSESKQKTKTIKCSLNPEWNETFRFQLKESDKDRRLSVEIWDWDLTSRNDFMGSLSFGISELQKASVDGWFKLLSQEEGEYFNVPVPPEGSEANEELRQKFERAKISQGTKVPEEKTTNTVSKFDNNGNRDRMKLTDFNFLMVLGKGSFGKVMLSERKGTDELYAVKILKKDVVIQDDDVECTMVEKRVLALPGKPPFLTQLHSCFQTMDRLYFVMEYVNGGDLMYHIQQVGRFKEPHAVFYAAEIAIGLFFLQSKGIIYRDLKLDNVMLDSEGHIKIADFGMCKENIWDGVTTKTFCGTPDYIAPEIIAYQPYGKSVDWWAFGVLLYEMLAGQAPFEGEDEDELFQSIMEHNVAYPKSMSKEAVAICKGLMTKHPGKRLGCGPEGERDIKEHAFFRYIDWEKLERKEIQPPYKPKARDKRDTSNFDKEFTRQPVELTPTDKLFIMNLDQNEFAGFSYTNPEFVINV

EPHB1 (human) = EPHB1 (human) (UniProt P54762)
MLTK (human) = MLTK (human) (UniProt Q9NYL2)
MLTK (human), sequence (Q9NYL2 whole entry, looked up): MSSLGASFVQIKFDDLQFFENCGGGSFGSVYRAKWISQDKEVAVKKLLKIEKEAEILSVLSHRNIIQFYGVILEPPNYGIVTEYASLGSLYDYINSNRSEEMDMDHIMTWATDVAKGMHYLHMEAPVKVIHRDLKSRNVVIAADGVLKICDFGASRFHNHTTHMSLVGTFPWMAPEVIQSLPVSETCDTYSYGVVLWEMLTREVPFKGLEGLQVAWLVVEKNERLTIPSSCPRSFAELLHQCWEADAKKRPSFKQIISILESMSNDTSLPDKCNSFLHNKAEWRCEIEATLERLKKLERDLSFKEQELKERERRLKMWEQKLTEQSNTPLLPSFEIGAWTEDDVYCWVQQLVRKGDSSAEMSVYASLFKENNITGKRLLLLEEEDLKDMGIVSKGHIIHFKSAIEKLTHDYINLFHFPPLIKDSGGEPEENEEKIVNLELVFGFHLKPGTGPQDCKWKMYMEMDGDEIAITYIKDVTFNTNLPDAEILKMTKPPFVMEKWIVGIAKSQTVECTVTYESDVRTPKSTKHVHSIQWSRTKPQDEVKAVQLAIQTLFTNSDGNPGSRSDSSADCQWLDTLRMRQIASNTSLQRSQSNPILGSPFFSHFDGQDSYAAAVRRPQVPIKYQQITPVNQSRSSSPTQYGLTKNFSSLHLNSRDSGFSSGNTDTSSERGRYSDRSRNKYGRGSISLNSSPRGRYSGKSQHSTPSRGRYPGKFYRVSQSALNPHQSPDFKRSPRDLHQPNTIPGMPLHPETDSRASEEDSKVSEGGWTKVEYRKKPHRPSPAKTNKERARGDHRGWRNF

CLK2 (human) = CLK2 (human) (UniProt P49760)
PBK (human) = PBK (human) (UniProt Q96KB5)
PBK (human), sequence (Q96KB5 whole entry, looked up): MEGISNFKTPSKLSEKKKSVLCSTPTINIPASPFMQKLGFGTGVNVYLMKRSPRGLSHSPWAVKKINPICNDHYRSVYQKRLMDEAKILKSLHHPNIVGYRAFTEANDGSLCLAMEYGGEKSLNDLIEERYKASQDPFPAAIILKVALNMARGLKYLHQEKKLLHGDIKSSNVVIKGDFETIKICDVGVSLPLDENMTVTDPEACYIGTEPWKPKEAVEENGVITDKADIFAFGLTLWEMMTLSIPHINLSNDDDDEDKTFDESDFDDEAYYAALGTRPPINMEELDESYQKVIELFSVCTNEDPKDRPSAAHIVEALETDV

NEK9 (human) = NEK9 (human) (UniProt Q8TD19)
GRK6 (human) = GRK6 (human) (UniProt P43250)
NEK2 (human) = NEK2 (human) (UniProt P51955)
NEK2 (human), sequence (P51955 whole entry, looked up): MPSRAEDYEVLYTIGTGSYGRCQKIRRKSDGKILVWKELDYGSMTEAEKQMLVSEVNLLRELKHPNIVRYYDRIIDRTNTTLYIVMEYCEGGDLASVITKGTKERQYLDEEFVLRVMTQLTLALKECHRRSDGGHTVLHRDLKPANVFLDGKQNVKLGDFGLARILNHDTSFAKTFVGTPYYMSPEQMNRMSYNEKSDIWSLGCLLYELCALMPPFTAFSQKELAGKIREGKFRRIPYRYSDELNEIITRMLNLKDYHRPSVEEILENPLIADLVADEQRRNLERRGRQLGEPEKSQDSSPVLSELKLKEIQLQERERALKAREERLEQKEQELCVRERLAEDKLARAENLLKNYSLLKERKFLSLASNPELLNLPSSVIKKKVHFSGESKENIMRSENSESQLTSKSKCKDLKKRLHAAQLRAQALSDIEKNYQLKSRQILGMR

TTK (human) = TTK (human) (UniProt P33981)
RPS6KA5 KD2 (human) = RPS6KA5 KD2 (human) (UniProt O75582)
BMX (human) = BMX (human) (UniProt P51813)
MAP2K1 (human) = MAP2K1 (human) (UniProt Q02750)
EPHA4 (human) = EPHA4 (human) (UniProt P54764)
ROCK1 (human) = ROCK1 (human) (UniProt Q13464)
STK4 (human) = STK4 (human) (UniProt Q13043)
DMPK (human) = DMPK (human) (UniProt Q09013)
DMPK (human), sequence (Q09013 whole entry, looked up): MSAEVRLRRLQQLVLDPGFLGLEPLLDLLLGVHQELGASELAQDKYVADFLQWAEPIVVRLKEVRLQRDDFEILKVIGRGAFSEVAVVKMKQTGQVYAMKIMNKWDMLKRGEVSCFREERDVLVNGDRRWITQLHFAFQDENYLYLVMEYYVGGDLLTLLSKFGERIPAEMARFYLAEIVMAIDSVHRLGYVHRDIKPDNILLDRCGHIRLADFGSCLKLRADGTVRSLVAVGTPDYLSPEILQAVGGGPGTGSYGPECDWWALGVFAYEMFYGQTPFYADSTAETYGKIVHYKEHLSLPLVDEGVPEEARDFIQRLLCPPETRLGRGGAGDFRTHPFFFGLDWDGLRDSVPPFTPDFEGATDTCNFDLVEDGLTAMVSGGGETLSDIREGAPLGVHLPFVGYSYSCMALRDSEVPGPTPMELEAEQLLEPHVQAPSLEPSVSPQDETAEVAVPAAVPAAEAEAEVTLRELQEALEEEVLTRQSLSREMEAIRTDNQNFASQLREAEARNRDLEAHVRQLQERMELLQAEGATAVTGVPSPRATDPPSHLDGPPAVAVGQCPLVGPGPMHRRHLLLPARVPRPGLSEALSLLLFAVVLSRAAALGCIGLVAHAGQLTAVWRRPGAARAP

YES1 (human) = YES1 (human) (UniProt P07947)
NTRK3 (human) = NTRK3 (human) (UniProt Q16288)
SRMS (human) = SRMS (human) (UniProt Q9H3Y6)
PRKCE (human) = PRKCE (human) (UniProt Q02156)
PRKD3 (human) = PRKD3 (human) (UniProt O94806)
CDC42BPB (human) = CDC42BPB (human) (UniProt Q9Y5S2)
DAPK1 (human) = DAPK1 (human) (UniProt P53355)
BRSK1 (human) = BRSK1 (human) (UniProt Q8TDC3)
PRKG1 (human) = PRKG1 (human) (UniProt Q13976)
SLK (human) = SLK (human) (UniProt Q9H2G2)
CDK4 CCND1 (human) = CDK4 CCND1 (human) (UniProt P24385+P11802)
AKT2 (human) = AKT2 (human) (UniProt P31751)
AKT2 (human), sequence (P31751 whole entry, looked up): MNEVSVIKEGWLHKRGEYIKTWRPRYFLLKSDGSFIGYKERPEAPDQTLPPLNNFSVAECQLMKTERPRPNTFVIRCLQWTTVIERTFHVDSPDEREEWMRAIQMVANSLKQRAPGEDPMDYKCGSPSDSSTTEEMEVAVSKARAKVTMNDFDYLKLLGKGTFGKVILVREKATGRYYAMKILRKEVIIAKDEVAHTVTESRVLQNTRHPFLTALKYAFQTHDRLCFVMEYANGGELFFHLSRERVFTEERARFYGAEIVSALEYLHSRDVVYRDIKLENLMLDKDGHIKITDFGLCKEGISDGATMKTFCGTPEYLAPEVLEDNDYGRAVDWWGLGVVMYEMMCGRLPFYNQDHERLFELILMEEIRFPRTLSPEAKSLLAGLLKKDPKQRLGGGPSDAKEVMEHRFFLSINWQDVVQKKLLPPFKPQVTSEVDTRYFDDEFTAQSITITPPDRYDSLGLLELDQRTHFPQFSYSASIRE

| Structure (SMILES) | residual activity (GSG2 (human)) [%] | residual activity (VRK1 (human)) [%] | residual activity (SGK2 (human)) [%] | residual activity (MAP3K7 TAB1 (human)) [%] | residual activity (LIMK1 (human)) [%] | residual activity (TAOK1 (human)) [%] | residual activity (PRKCD (human)) [%] | residual activity (NUAK2 (human)) [%] | residual activity (PRKG2 (human)) [%] | residual activity (CAMK2D (human)) [%] | residual activity (PRKCB1 (human)) [%] | residual activity (MLTK (human)) [%] | residual activity (CLK2 (human)) [%] | residual activity (PBK (human)) [%] | residual activity (NEK9 (human)) [%] | residual activity (GRK6 (human)) [%] | residual activity (NEK2 (human)) [%] | residual activity (TTK (human)) [%] | residual activity (RPS6KA5 KD2 (human)) [%] | residual activity (BMX (human)) [%] | further results |
| --- | --- | --- | --- | --- | --- | --- | --- | --- | --- | --- | --- | --- | --- | --- | --- | --- | --- | --- | --- | --- | --- |
| CC#CC(=O)Nc1cc2c(Nc3ccc(F)c(Cl)c3)ncnc2cn1 | 101 | 87.8 | 98.3 | 100 | 84.2 | 104 | 99.8 | 95.4 | 105 | 100 | 97.4 | 85.8 | 100 | 99.9 | 104 | 104 | 103 | 104 | 103 | 2.54 | residual activity (CSK (human)): 100%; residual activity (IKBKE (human)): 98.9%; residual activity (LCK (human)): 92.2%; residual activity (EPHB1 (human)): 92%; residual activity (MAP2K1 (human)): 95.3%; residual activity (EPHA4 (human)): 94.6%; residual activity (ROCK1 (human)): 96.2%; residual activity (STK4 (human)): 98.7%; residual activity (DMPK (human)): 104%; residual activity (YES1 (human)): 82.3%; residual activity (NTRK3 (human)): 95.3%; residual activity (SRMS (human)): 96.1%; residual activity (PRKCE (human)): 88.3%; residual activity (PRKD3 (human)): 103%; residual activity (CDC42BPB (human)): 96.4%; residual activity (DAPK1 (human)): 94.7%; residual activity (BRSK1 (human)): 102%; residual activity (PRKG1 (human)): 91.7% and 97.6%; residual activity (SLK (human)): 93.6%; residual activity (CDK4 CCND1 (human)): 98.6% |
| O=S(=O)(c1cccc2cnccc12)N1CCCNCC1 | 86.6 | 87.6 | 91.9 | 106 | 100 | 123 | 84.7 | 83.5 | 98.9 | 98.5 | 94.6 | 101 | 95.1 | 100 | 95.9 | 95.4 | 92.3 | 99.1 | 62.1 | 104 | residual activity (CSK (human)): 87.9%; residual activity (LCK (human)): 101%; residual activity (EPHB1 (human)): 106%; residual activity (MAP2K1 (human)): 83%; residual activity (AKT2 (human)): 115%; residual activity (EPHA4 (human)): 98.5%; residual activity (ROCK1 (human)): 60.2%; residual activity (STK4 (human)): 94.8%; residual activity (YES1 (human)): 96.5%; residual activity (NTRK3 (human)): 85.5%; residual activity (SRMS (human)): 97.5%; residual activity (PRKCE (human)): 76.5%; residual activity (PRKD3 (human)): 65.8%; residual activity (DAPK1 (human)): 79%; residual activity (BRSK1 (human)): 97.5%; residual activity (PRKG1 (human)): 79.6% and 87.7%; residual activity (SLK (human)): 95.8%; residual activity (CDK4 CCND1 (human)): 92.2% |
| Cc1ccc(NC2=CC(=O)c3sc(C)nc3C2=O)cc1 | 86.6 | 108 | 94.6 | 99.1 | 104 | 99.8 | 104 | 105 | 60.8 | 93.2 | 95.7 | 94 | 83.6 | 85.8 | 99.4 | 96.8 | 96.4 | 98.9 | 87.7 | 100 | residual activity (CSK (human)): 102%; residual activity (IKBKE (human)): 102%; residual activity (LCK (human)): 94.2%; residual activity (MAP2K1 (human)): 96.1%; residual activity (AKT2 (human)): 91.3%; residual activity (EPHA4 (human)): 86.5%; residual activity (ROCK1 (human)): 100%; residual activity (STK4 (human)): 93.5%; residual activity (DMPK (human)): 103%; residual activity (YES1 (human)): 86.7%; residual activity (NTRK3 (human)): 94%; residual activity (SRMS (human)): 82.4%; residual activity (PRKCE (human)): 96.3%; residual activity (PRKD3 (human)): 93.5%; residual activity (CDC42BPB (human)): 109%; residual activity (DAPK1 (human)): 105%; residual activity (BRSK1 (human)): 88.6%; residual activity (PRKG1 (human)): 104% and 96.3%; residual activity (SLK (human)): 80.6%; residual activity (CDK4 CCND1 (human)): 92% |
| COc1ccc(COc2ccc(Cc3cnc(N)nc3N)cc2OC)cc1 | 97.7 | 91.4 | 97.5 | 97.9 | 94.5 | 110 | 87.8 | 98.1 | 104 | 109 | 102 | 97.4 | 94.3 | 99.4 | 93.3 | 99.8 | 99.2 | 105 | 103 | 93.4 | residual activity (IKBKE (human)): 96.7%; residual activity (LCK (human)): 96.3%; residual activity (EPHB1 (human)): 103%; residual activity (MAP2K1 (human)): 98.6%; residual activity (AKT2 (human)): 102%; residual activity (EPHA4 (human)): 105%; residual activity (ROCK1 (human)): 100%; residual activity (STK4 (human)): 106%; residual activity (DMPK (human)): 101%; residual activity (YES1 (human)): 94.8%; residual activity (SRMS (human)): 95.9%; residual activity (PRKCE (human)): 95.7%; residual activity (PRKD3 (human)): 97.1%; residual activity (CDC42BPB (human)): 96.9%; residual activity (DAPK1 (human)): 102%; residual activity (BRSK1 (human)): 95.6%; residual activity (PRKG1 (human)): 91.7% and 98.3%; residual activity (SLK (human)): 97.7%; residual activity (CDK4 CCND1 (human)): 97.4% |
| O=C(Nc1cccc(Nc2nccc(Nc3cccc(C(F)(F)F)c3)n2)c1)C1CC1 | 101 | 88.2 | 118 | 87.4 | 45.1 | 97.9 | 87.9 | 94.3 | 96.2 | 93.5 | 94.7 | 110 | 87.6 | 101 | 102 | 93.8 | 95.3 | 92.1 | 101 | 83.6 | residual activity (CSK (human)): 97.4%; residual activity (IKBKE (human)): 97.5%; residual activity (EPHB1 (human)): 85.6%; residual activity (MAP2K1 (human)): 98%; residual activity (AKT2 (human)): 107%; residual activity (EPHA4 (human)): 81%; residual activity (ROCK1 (human)): 101%; residual activity (STK4 (human)): 83.1%; residual activity (DMPK (human)): 101%; residual activity (YES1 (human)): 78.9%; residual activity (NTRK3 (human)): 77.3%; residual activity (SRMS (human)): 95.5%; residual activity (PRKCE (human)): 106%; residual activity (PRKD3 (human)): 91.9%; residual activity (CDC42BPB (human)): 96.6%; residual activity (DAPK1 (human)): 83.5%; residual activity (BRSK1 (human)): 97.1%; residual activity (PRKG1 (human)): 97.6% and 99.3%; residual activity (SLK (human)): 92.9%; residual activity (CDK4 CCND1 (human)): 101% |
